Results on one compound are retold here after patent publication US20110311517A1, “Antibodies and methods for treating estrogen receptor-associated diseases” (SHENOGEN PHARMA GROUP, LTD., priority 2009, published 2011).

The subject of the assay is implanted tumors. As to the kind of experiment: Comparison of anti-tumor activity of ScFv-7 with tamoxifen on tumor-bearing nude mice. Format: in vivo, BALB/c-nu female nude mice. Particulars: after 18 days of drug administration. On the procedure: BALB/c-nu female nude mice were divided into 3 groups, with 7 mice in each group.
Human anti-ERα36 ScFv-7 was administered at the dose of 0.1 mg/20 g body weight/day. The positive control tamoxifen was administered at the dose of 0.33 mg/20 g body weight/day. The negative control group was administered with human IgG.
The tumor-bearing nude mice were weighed, and the volumes of the implanted tumors were measured every 3-4 days. The relative tumor volumes and tumor growth inhibition rates were calculated using Equation 2 and Equation 4 respectively. Animals received drug administration for 18 days and were terminated 24 h later. The tumors were excised from the animals and weighed. The average tumor weights and tumor growth inhibitions were calculated using Equation 4.

For `CC/C(=C(\c1ccccc1)c1ccc(OCCN(C)C)cc1)c1ccccc1` [tamoxifen, reference compound], the tumor inhibition rates entry (ScFv-7 0.1 mg/20 g body weight/day, tamoxifen 0.33 mg/20 g body weight/day) is “around 60%”. Besides, where the note is “p-values below 0.01”, the “average tumor weights compared with negative group” value was “significant difference”.
